Laboratory results reported in patent publication US11434242B2, “Dopamine-b-hydroxylase inhibitors” (BIAL-PORTELA & Cª, S.A., priority 2017, dated 2022).
Like-named read-outs stand apart in the source and are kept apart here. Marks after values point to notes of the source that are not given here.

Tests used:
[1] = molecular target: T1, DβH (Homo sapiens, UniProt P09172); assay: DβH inhibition assay in SK-N-SH cellular homogenates (tyramine to octopamine); assay type: biochemical; conditions: SK-N-SH cell homogenate; for SKNSH (0.1 μM), activity in % of control: inhibitor 0.1 μM; for SKNSH (1 μM), activity in % of control: inhibitor 1 μM
T1 construct: cellular homogenate (75 μg total protein); host or cells: SK-N-SH cells (homogenate)
T1 sequence (P09172 1-617): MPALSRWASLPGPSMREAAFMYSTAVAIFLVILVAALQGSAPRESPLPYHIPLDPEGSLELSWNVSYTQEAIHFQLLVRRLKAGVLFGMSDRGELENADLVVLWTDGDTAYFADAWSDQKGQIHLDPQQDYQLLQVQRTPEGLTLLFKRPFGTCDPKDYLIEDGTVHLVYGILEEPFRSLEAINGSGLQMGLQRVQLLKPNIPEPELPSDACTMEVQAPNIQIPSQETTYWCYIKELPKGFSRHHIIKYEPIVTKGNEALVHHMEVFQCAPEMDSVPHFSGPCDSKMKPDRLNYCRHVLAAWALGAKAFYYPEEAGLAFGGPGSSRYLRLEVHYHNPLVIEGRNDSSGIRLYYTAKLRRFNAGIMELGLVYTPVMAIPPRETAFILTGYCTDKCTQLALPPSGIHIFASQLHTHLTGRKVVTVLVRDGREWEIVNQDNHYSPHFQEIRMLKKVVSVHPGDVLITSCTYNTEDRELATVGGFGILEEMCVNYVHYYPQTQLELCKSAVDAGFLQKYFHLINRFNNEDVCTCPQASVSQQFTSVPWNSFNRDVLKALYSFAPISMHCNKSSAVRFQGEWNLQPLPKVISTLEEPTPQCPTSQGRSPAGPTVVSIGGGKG

[2] = molecular target: T2, Dopamine beta hydroxylase (Homo sapiens, UniProt P09172); assay: Dopamine beta hydroxylase activity in human plasma; assay type: biochemical; conditions: for Plasma (1 μM), activity in % of control: inhibitor 1 μM
T2 construct: 125 μl of plasma; tissue Instituto Português do Sangue Transplantação; host or cells: human plasma from healthy donors
T2 sequence (P09172 40-617 limits assumed): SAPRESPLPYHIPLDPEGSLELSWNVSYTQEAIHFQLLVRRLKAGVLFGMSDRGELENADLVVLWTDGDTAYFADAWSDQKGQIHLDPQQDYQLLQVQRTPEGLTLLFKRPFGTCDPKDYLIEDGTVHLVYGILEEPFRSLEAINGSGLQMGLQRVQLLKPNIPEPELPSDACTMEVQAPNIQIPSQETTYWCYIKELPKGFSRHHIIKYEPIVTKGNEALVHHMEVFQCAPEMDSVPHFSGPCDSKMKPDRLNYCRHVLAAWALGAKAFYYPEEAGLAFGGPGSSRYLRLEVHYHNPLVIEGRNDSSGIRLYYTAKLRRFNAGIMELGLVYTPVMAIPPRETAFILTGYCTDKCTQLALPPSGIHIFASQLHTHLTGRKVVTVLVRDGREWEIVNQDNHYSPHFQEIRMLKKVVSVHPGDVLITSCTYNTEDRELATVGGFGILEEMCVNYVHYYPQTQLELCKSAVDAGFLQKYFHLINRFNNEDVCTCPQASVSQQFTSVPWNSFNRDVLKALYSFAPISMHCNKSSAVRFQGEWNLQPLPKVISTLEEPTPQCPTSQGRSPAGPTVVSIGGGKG
Method in brief: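 Octopamine production from tyramine over 45 min at 37° C, measured photometrically at 330 nm after SCX extraction and periodate oxidation against an octopamine standard curve, indicates plasma DβH activity. Compounds tested at final 10, 100 and 1000 nM in human plasma, pH 5.0 cofactor buffer, 10 min preincubation; results as % of control.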

[3] = Evaluation of pharmacokinetic profile: plasma and brain concentrations after oral dosing; assay type: in vivo, Wistar rats; conditions: rat, 10 mg/kg po; for concentration at 1 h / concentration at 2 h: male, Wistar; for concentration at 1 h: 1 h post-dosing; for concentration at 2 h: 2 h post-dosing
Method: Adult male Wistar rats were kept under controlled environmental conditions (12 h light/dark cycle, room temperature 22±1° C. and humidity 50±5%, food and tap water ad libitum). On the day before the experiment, the animals were fasted. In experiments designed to evaluate the pharmacokinetic profile of Examples 56, 66, 199 and 232, rats (n=4) were administered orally (p.o.) with examples 56, 66, 199 and 232 (10 mg/kg/4 mL; vehicle: 40% kleptose) and plasma and brain samples were collected from anaesthetized animals at 1 and 2 h post-dosing. Animals were anaesthetized by intraperitoneal administration of sodium pentobarbital (60 mg/kg). Blood was collected from cardiac punction into heparinised tubes and kept on ice until centrifugation at 1,500 g for 15 min at 4° C. Plasma and brain samples were stored at less than −20° C. until analysis.
After thawing, 200 μL of acetonitrile 0.1% formic acid was added to 100 μL of plasma. The samples were vortexed and centrifuged for 10 min at 10 000 g. Supernatant was filtered and injected into a mass spectrometer.
After thawing and weighing, water was added to the brain to give a tissue concentration of […]. The samples were then homogenized using a Heidolph DIAX 900 mixer and transferred to plastic tubes. Following centrifugation at 10 000 g for 20 min, supernatant was taken and treated as described for plasma.

[4] = brain, read-out: Cbr (ng/g) at 1 h
[5] = brain, read-out: Cbr (ng/g) at 2 h
[6] = plasma, read-out: Cpl (ng/mL) at 1 h
[7] = plasma, read-out: Cpl (ng/mL) at 2 h

| Structure (SMILES) | SKNSH (0.1 μM), activity in % of control [1] | SKNSH (1 μM), activity in % of control [1] | Plasma (0.1 μM), activity in % of control ([2]; inhibitor 0.1 μM) | Plasma (1 μM), activity in % of control [2] | concentration at 1 h [3, 4] [ng/g] | concentration at 2 h [3, 5] [ng/g] | concentration at 1 h [3, 6] [ng/mL] | concentration at 2 h [3, 7] [ng/mL] | peripheral selectivity (exposure in plasma compared to brain) [3] | Plasma (0.01 μM), activity in % of control ([2]; inhibitor 0.01 μM) | Plasma (0.01 μM), activity in % of control, re-test (asterisked) ([2]; inhibitor 0.01 μM, re-tested under the same experimental conditions, asterisked data believed to be correct) | Plasma (0.1 μM), activity in % of control, re-test (asterisked) ([2]; inhibitor 0.1 μM, re-tested under the same experimental conditions, asterisked data believed to be correct) |
| --- | --- | --- | --- | --- | --- | --- | --- | --- | --- | --- | --- | --- |
| O=C(O)Cc1[nH]c(=S)n2c1[C@@H]1C[C@]1(c1cc(Cl)ccc1F)C2 [Example 52, 2-((5aS,6aR)-5a-(5-chloro-2-fluorophenyl)-3-thioxo-2,3,5,5a,6,6a-hexahydrocyclopropa[3,4]pyrrolo[1,2-c]imidazol-1-yl)acetic Acid] | 9.2 % of control | 0.2 % of control | 10.3 % of control | 1.6 % of control | – | – | – | – | – | – | – | – |
| CCOC(=O)Cc1[nH]c(=S)n2c1[C@@H]1C[C@]1(c1cc(Cl)ccc1F)C2 [Example 54, Ethyl 2-((5aS,6aR)-5a-(5-chloro-2-fluorophenyl)-3-thioxo-2,3,5,5a,6,6a-hexahydrocyclopropa[3,4]pyrrolo[1,2-c]imidazol-1-yl)acetate] | 33.8 % of control | 4.2 % of control | 32.2 % of control | 3.4 % of control | – | – | – | – | – | – | – | – |
| O=C(O)Cc1[nH]c(=S)n2c1[C@@H]1C[C@]1(c1c(F)ccc(Br)c1F)C2 [Example 51, 2-((5aS,6aR)-5a-(3-bromo-2,6-difluorophenyl)-3-thioxo-2,3,5,5a,6,6a-hexahydrocyclopropa[3,4]pyrrolo[1,2-c]imidazol-1-yl)acetic Acid] | 0.4 % of control | 0 % of control | 5.7 % of control | 0 % of control | – | – | – | – | – | – | – | – |
| O=C(O)Cc1[nH]c(=S)n2c1[C@@H]1C[C@]1(c1cc(F)cc(Cl)c1)C2 [Example 53, 2-((5aS,6aR)-5a-(3-chloro-5-fluorophenyl)-3-thioxo-2,3,5,5a,6,6a-hexahydrocyclopropa[3,4]pyrrolo[1,2-c]imidazol-1-yl)acetic Acid] | 13.4 % of control | 0 % of control | 26.2 % of control | 2.7 % of control | – | – | – | – | – | – | – | – |

Second part, the compound after the results:

| SKNSH (0.1 μM), activity in % of control [1] | SKNSH (1 μM), activity in % of control [1] | Plasma (0.1 μM), activity in % of control ([2]; inhibitor 0.1 μM) | Plasma (1 μM), activity in % of control [2] | concentration at 1 h [3, 4] [ng/g] | concentration at 2 h [3, 5] [ng/g] | concentration at 1 h [3, 6] [ng/mL] | concentration at 2 h [3, 7] [ng/mL] | peripheral selectivity (exposure in plasma compared to brain) [3] | Plasma (0.01 μM), activity in % of control ([2]; inhibitor 0.01 μM) | Plasma (0.01 μM), activity in % of control, re-test (asterisked) ([2]; inhibitor 0.01 μM, re-tested under the same experimental conditions, asterisked data believed to be correct) | Plasma (0.1 μM), activity in % of control, re-test (asterisked) ([2]; inhibitor 0.1 μM, re-tested under the same experimental conditions, asterisked data believed to be correct) | Structure (SMILES) |
| --- | --- | --- | --- | --- | --- | --- | --- | --- | --- | --- | --- | --- |
| – | – | 0.6 % of control | – | 45 | 0 | 1640 | 777 | peripherally selective | 27.4 % of control | 119.3* % of control | 84.9* % of control | Cl.Fc1cc(F)c(F)c([C@H]2Cc3c(CCN4CCOCC4)[nH]c(=S)n3C2)c1F [Example 199, (R)-1-(2-morpholinoethyl)-6-(2,3,5,6-tetrafluorophenyl)-2,5,6,7-tetrahydro-3H-pyrrolo[1,2-c]imidazole-3-thione Hydrochloride] |
| 56.8 % of control | 9.3 % of control | 59.2 % of control | 14.0 % of control | – | – | – | – | – | – | – | – | NC(=O)Cc1[nH]c(=S)n2c1[C@@H]1C[C@]1(c1cc(F)cc(Cl)c1)C2 [Example 58, 2-((5aS,6aR)-5a-(3-chloro-5-fluorophenyl)-3-thioxo-2,3,5,5a,6,6a-hexahydrocyclopropa[3,4]pyrrolo[1,2-c]imidazol-1-yl)acetamide] |
| – | – | 52.3 % of control | 6.4 % of control | 0 | 0 | 779 | 429 | peripherally selective | – | – | – | O=C(Cc1[nH]c(=S)n2c1[C@@H]1C[C@]1(c1cc(Cl)ccc1F)C2)N1CCOCC1 [Example 66, 2-((5aS,6aR)-5a-(5-chloro-2-fluorophenyl)-3-thioxo-2,3,5,5a,6,6a-hexahydrocyclopropa[3,4]pyrrolo[1,2-c]imidazol-1-yl)-1-morpholinoethan-1-one] |
| – | – | 6.4 % of control | – | 24 | 46 | 1710 | 1310 | peripherally selective | 48.8 % of control | – | – | Cn1c(CC(=O)N[C@@H]2CCOC2)c2n(c1=S)C[C@H](c1c(F)ccc(Br)c1F)C2 [Example 232, 2-((S)-6-(3-bromo-2,6-difluorophenyl)-2-methyl-3-thioxo-2,5,6,7-tetrahydro-3H-pyrrolo[1,2-c]imidazol-1-yl)-N—((R)-tetrahydrofuran-3-yl)acetamide] |
| 48.9 % of control | 3.9 % of control | 62.1 % of control | 11.1 % of control | – | – | – | – | – | – | – | – | CCOC(=O)Cc1[nH]c(=S)n2c1[C@@H]1C[C@]1(c1cc(F)cc(Cl)c1)C2 [Example 55, Ethyl 2-((5aS,6aR)-5a-(3-chloro-5-fluorophenyl)-3-thioxo-2,3,5,5a,6,6a-hexahydrocyclopropa[3,4]pyrrolo[1,2-c]imidazol-1-yl)acetate] |
| 11.6 % of control | 0.2 % of control | 18.1 % of control | 0.1 % of control | – | – | – | – | – | – | – | – | NC(=O)Cc1[nH]c(=S)n2c1[C@@H]1C[C@]1(c1c(F)ccc(Br)c1F)C2 [Example 57, 2-((5aS,6aR)-5a-(3-bromo-2,6-difluorophenyl)-3-thioxo-2,3,5,5a,6,6a-hexahydrocyclopropa[3,4]pyrrolo[1,2-c]imidazol-1-yl)acetamide] |
